{"source": "patent US10451637B2", "about": "“Synthetic blood vessels and uses thereof” (THE UNIVERSITY OF BRITISH COLUMBIA, priority 2017, dated 2019)", "key": {"[1]": {"system": "endothelial barrier", "experiment": "Endothelial barrier integrity, Evans blue injected into circulation loop", "type": "in vitro ADME, human", "conditions": "tripartite and bipartite vessels", "text": "The integrity of the endothelial barrier in tripartite vessels was functionally assessed by injecting Evans blue into the circulation loop and compared to bipartite vessels. As expected, Evans blue was excluded in both tripartite and bipartite vessels (FIG. 1A)."}, "[2]": {"system": "native apoE secreted by astrocytes", "experiment": "Astrocyte apoE secretion in tripartite vessels (ELISA)", "type": "cell-based, human", "conditions": "GW3965 circulated through lumen 72 h", "method": "All experiments were conducted under an approved clinical protocol (UBC Clinical Ethics Research Board H14-03357). Upon receipt of written informed consent, 100 ml of fasted blood was collected from normolipidemic healthy donors into vacutainer tubes containing EDTA. Plasma HDL (1.063-1.21 g/ml) was isolated by sequential potassium bromide gradient ultracentrifugation. The purity of the HDL preparations were verified by sodium dodecyl sulfate polyacrylamide gel electrophoresis (SDS-PAGE) followed by Coomassie blue staining to ensure no low-density lipoprotein (LDL) or albumin contamination. Total protein concentration was assessed using the bicinchoninic acid (BCA) assay (Thermofisher Scientific). Recombinant ApoE2 and ApoE4 were commercially purchased and solubilized following the manufacturer's instructions (ABCAM, apoE2 ab55210 and apoE4 ab50243). Secretion of endogenous ApoE from human astrocytes in tripartite vessels was induced by injecting 0.8 μM GW3965 in the circulation medium 72 h prior to addition of Aβ. ApoE concentrations were measured using enzyme linked immunosorbent assay (ELISA) as previously described (Fan et al. 2016 PLoS One. September 6; 11(9):e0162384). […] Fluorescence was read after 15 min at RT on an EnSpire 2300 Multilabel Plate Reader (325Ex/420Em). […]"}, "[3]": {"system": "glutamate release", "experiment": "Neuronal functionality: glutamate release from quadripartite tissue (HPLC)", "type": "cell-based, human", "conditions": "50 nM KCl for 30 min", "method": "After 21 days in culture, quadripartite tissue were harvested in Hanks buffered salt solution (HBSS) and cut in half. One half is incubated in HBSS without potassium chloride (KCl) and one half in HBSS with […] KCl. After 30 minutes buffer was collected and run through a GABA/glutamate affinity column on a high pressure liquid chromatography (HPLC) previously calibrated with glutamate standard (0 to 2.5 uM).\nThe functionality of the neurons was further evaluated by measuring glutamate release in the absence and presence of […] of KCL for 30 min. Glutamate release was then measured by HPLC (FIG. 9A). […] Finally, the secretion of endogenous neuronally-produced Aβ40 and Aβ42 in quadripartite tissue (FIG. 9B) and in circulatory medium (FIG. 9C) as measured by commercial ELISA as above."}, "[4]": {"system": "NO synthase", "experiment": "NO production by EC in tripartite vessels (conversion of L-3H-arginine to L-3H-citruline)", "type": "cell-based, human", "conditions": "1 mM L-NAME with Ach or HDL stimulation", "method": "Nitric oxide (NO) synthesis was measured using a commercial nitric oxide synthesis (NOS) activity assay kit (Caymenchemical). Briefly, a 2-3 mm ring of vascular tissue was mechanically ground in 150 μl of ice-cold homogenized buffer (25 mM Tris-Cl, pH7.4, 1 mM EDTA and 1 mM EGTA) and centrifuged 15 min at 4° C. at 10,000 g. The supernatant was aliquoted and incubated in reaction buffer containing 25 mM Tris-Cl, pH7.4, 0.25 mM EDTA, 0.6 mM CaCl2, 1 mM NADP, 200 nM calmodulin, 3 μM tetrahydrobiopterin, 1 μM flavin adenine dinucleotide, 1 μM flavin adenine monoucleotide and 0.2 μCi L-^3H-arginine; PerkinElmer) in the presence of 10 nM acetylcholine (Ach), 0.2 mg/ml HDL or 1 mM L-NG-nitroarginine methyl ester (L-NAME). After 60 min at 37° C., the reaction was stopped by adding 400 μl of stop buffer ([…] HEPES, 5 mM EDTA, pH 5.5). […] Scintillation mix (Ultimate Gold, PerkinElmer) was added to the supernatant and counted using LS6500 β-counter (Beckman Coulter). The percent citrulline formed was calculated as follows: % conversion=(cpm reaction-cpm background)/cpm total*100.\nThe functionality of EC and astrocytes within tripartite bioengineered vessels was evaluated by measuring nitric oxide (NO) produced by EC and native apoE secreted by astrocytes, which were genotyped as apoE3/apoE3. […]"}, "[5]": {"system": "Aβ40", "experiment": "Aβ40 transport into luminal circulating medium, bipartite vessels (ELISA)", "type": "cell-based, human", "conditions": "1 μM Aβ40, over 4 h, apoE ratio 25:1 antelumen, HDL 200 μg/ml circulating", "method": "(§1) Recombinant Aβ40 and Aβ42 peptides (California Peptide) were dissolved in hexafluoroisopropanol (HFIP). The HFIP was removed by evaporation overnight and stocks were stored at −20° C. On the day of the assay, soluble monomers were prepared by reconstituting the peptide film in dimethylsulfoxide (DMSO) to 5 mM, diluted further to […] in Roswell Park Memorial Institute (RPMI) medium without FBS. 100 μl of Aβ solution was injected in the tissue chamber containing 900 μl of DMEM (Gibco) without FBS to the desired concentration using a syringe under flow conditions. For luminal recovery, 100 μl circulating medium was collected at the indicated time.\n(§2) Luminal medium was collected from the circulation chamber and 5 mm tissue rings were crushed and lysed in radioimmunoprecipitation assay (RIPA) buffer (10 mM Tris pH 7.4, 150 mM NaCl, 1.0% NP-40, 1.0% sodium deoxycholate, 0.1% SDS and cOmplete protease inhibitor with EDTA (Roche)). Aβ40 (KHB3442, Life Tech) and Aβ42 (KHB3482, Life Tech) were quantified using commercial ELISAs and normalized to total protein concentration, measured by BCA.\n(§3) Genetic variation in APOE represents a common genetic risk for AD, with apoE4 considered detrimental and apoE2 protective (Zlokovic, 2013 JAMA Neurol 70(4):440-444). […]"}, "[6]": {"system": "Aβ42", "experiment": "Aβ42 transport into luminal circulating medium, bipartite vessels (ELISA)", "type": "cell-based, human", "conditions": "1 μM Aβ42, over 4 h, apoE ratio 25:1 antelumen, HDL 200 μg/ml circulating", "method": "as §1, §2\n(§4) Bipartite vessels were prepared as described above. […]"}, "[7]": {"system": "Aβ40", "experiment": "Aβ40 accumulation in vascular tissue, bipartite vessels (ELISA)", "type": "cell-based, human", "conditions": "1 μM Aβ40, 24 h, apoE ratio 25:1, HDL 200 μg/ml", "method": "as §1, §2, §3"}, "[8]": {"system": "Aβ42", "experiment": "Aβ42 accumulation in vascular tissue, bipartite vessels (ELISA)", "type": "cell-based, human", "conditions": "1 μM Aβ42, 24 h, apoE ratio 25:1, HDL 200 μg/ml", "method": "as §1, §2, §4"}, "[9]": {"system": "Aβ40", "experiment": "Aβ40 transport into luminal circulating medium, tripartite vessels (ELISA)", "type": "cell-based, human", "conditions": "1 μM Aβ40, over 4 h, GW3965 0.8 μM 72 h (astrocyte apoE), HDL 200 μg/ml", "method": "as §1\n(§5) All experiments were conducted under an approved clinical protocol (UBC Clinical Ethics Research Board H14-03357). Upon receipt of written informed consent, 100 ml of fasted blood was collected from normolipidemic healthy donors into vacutainer tubes containing EDTA. Plasma HDL (1.063-1.21 g/ml) was isolated by sequential potassium bromide gradient ultracentrifugation. […] Total protein concentration was assessed using the bicinchoninic acid (BCA) assay (Thermofisher Scientific). […] ApoE concentrations were measured using enzyme linked immunosorbent assay (ELISA) as previously described (Fan et al. 2016 PLoS One. September 6; 11(9):e0162384). […] Fluorescence was read after 15 min at RT on an EnSpire 2300 Multilabel Plate Reader (325Ex/420Em). […]"}, "[10]": {"system": "Aβ42", "experiment": "Aβ42 transport into luminal circulating medium, tripartite vessels (ELISA)", "type": "cell-based, human", "conditions": "1 μM Aβ42, over 4 h, GW3965 0.8 μM 72 h (astrocyte apoE), HDL 200 μg/ml", "method": "as §1, §5"}, "[11]": {"system": "Aβ40", "experiment": "Aβ40 accumulation in vascular tissue, tripartite vessels (ELISA)", "type": "cell-based, human", "conditions": "after 24 h, relative to baseline tripartite conditions", "method": "as §1, §5"}, "[12]": {"system": "Aβ42", "experiment": "Aβ42 accumulation in vascular tissue, tripartite vessels (ELISA)", "type": "cell-based, human", "conditions": "after 24 h, relative to baseline tripartite conditions", "method": "as §1, §5"}}, "note": "Entries after “also recorded” stand apart in the source; their conditions may differ.", "data": [{"compound": "Cc1cc(-c2ccc(/N=N/c3ccc4c(S(=O)(=O)O)cc(S(=O)(=O)O)c(N)c4c3O)c(C)c2)ccc1/N=N/c1ccc2c(S(=O)(=O)O)cc(S(=O)(=O)O)c(N)c2c1O", "note": "[Evans blue]", "values": [{"measurement": "Evans blue exclusion (integrity of the endothelial barrier)", "setting": "[1]", "result": "excluded"}]}, {"compound": "O=C(O)Cc1cccc(OCCCN(Cc2cccc(C(F)(F)F)c2Cl)CC(c2ccccc2)c2ccccc2)c1", "note": "[GW3965]", "values": [{"measurement": "secretion of native apoE", "setting": "[2]", "result": "significantly stimulated"}]}, {"compound": "[Cl-].[K+]", "note": "[KCl, potassium chloride]", "values": [{"measurement": "glutamate release", "setting": "[3]", "result": "increased glutamate release"}]}, {"compound": "COC(=O)[C@@H](N)CCCNC(=N)N[N+](=O)[O-]", "note": "[L-NAME, L-NG-nitroarginine methyl ester]", "values": [{"measurement": "conversion of L-3H-arginine to L-3H-citruline in the presence of L-NAME", "setting": "[4]", "result": "the conversion was blocked"}]}, {"compound": "apoE2: Recombinant ApoE2, commercially purchased (ABCAM ab55210)", "values": [{"measurement": "Aβ40 transport (recovery into circulation medium)", "setting": "[5]", "result": "did not alter"}, {"measurement": "Aβ42 transport (recovery into circulation medium)", "setting": "[6]", "result": "did not alter"}, {"measurement": "Aβ40 accumulated in tissue", "setting": "[7]", "result": "not significantly affected"}, {"measurement": "Aβ42 accumulated in tissue", "setting": "[8]", "result": "selectively decreased; also recorded: significantly reduced"}]}, {"compound": "apoE4: Recombinant ApoE4, commercially purchased (ABCAM ab50243)", "values": [{"measurement": "Aβ42 accumulated in tissue", "setting": "[8]", "result": "selectively elevated"}]}, {"compound": "apoE: Native apoE3 secreted from astrocytes in tripartite vessels, stimulated with GW3965 (0.8 μM) for 72 h", "values": [{"measurement": "rate of Aβ40 transport", "setting": "[9]", "result": "neither apoE alone nor HDL alone modified the rate"}, {"measurement": "rate of Aβ42 transport", "setting": "[10]", "result": "neither apoE alone nor HDL alone modified the rate"}, {"measurement": "accumulation of Aβ40 within tissue", "setting": "[11]", "result": "neither apoE, HDL, nor both apoE and HDL affected accumulation"}, {"measurement": "accumulation of Aβ42 within tissue", "setting": "[12]", "result": "neither apoE, HDL, nor both apoE and HDL affected accumulation"}]}]}
